Laboratory results taken from patent US20060216333A1, “Methods related to the treatment of mucosal associated conditions” (priority 2003, published 2006).

Columns and labels:
Type in all cases: in vivo, rat
MCP-1 = assay: Serum and vaginal tissue MCP-1 after intravaginal dosing of rats (ELISA); details: for MCP-1 Tissue: vaginal tissue, per 200 mg
Description: (§1) In the examples below the serum and intravaginal cytokine data were obtained using the following general test method.
(§2) Rats were acclimated to collars (Lomir Biomedical, Malone, N.Y.) around the neck on two consecutive days prior to actual dosing. Rats were collared to prevent removal of the device and ingestion of the drug. Animals were then dosed intravaginally with a removable device or with […] of cream. Single dosed rats received one intravaginal dose with samples collected at various times following dosing. Blood was collected by cardiac puncture. Blood was allowed to clot briefly at room temperature and serum was separated from the clot via centrifugation. The serum was stored at −20° C. until it was analyzed for cytokine concentrations.
(§3) Following blood collection, the rats were euthanized and their vaginal tract, including the cervix, was then removed and the tissue was weighed, placed in a sealed 1.8 mL cryovial and flash frozen in liquid nitrogen. The frozen vaginal tissue sample was then suspended in 1.0 mL of RPMI medium (Celox, St. Paul, Minn.) containing 10% fetal bovine serum (Atlas, Fort Collins, Colo.), 2 mM L-glutamine, penicillin/streptomycin and 2-mercaptoethanol (RPMI complete) combined with a protease inhibitor cocktail set III (Calbiochem, San Diego, Calif.). The tissue was homogenized using a Tissue Tearor (Biospec Products, Bartlesville, Okla.) for approximately one minute. The tissue suspension was then centrifuged at 2000 rpm for 10 minutes under refrigeration to pellet the debris, and the supernatant collected and stored at −20° C. until analyzed for cytokine concentrations.
(§4) ELISA kits for rat TNF were purchased from BD PharMingen (San Diego, Calif.) and the rat MCP-1 ELISA kits were purchased from BioSource Intl. (Camarillo, Calif.).
(§5) Both kits were performed according to manufacturer's specifications. Results for both TNF and MCP-1 are expressed in pg/mL and are normalized per 200 mg of tissue. […] “Post dosing” means after treatment initiation. For example, if a device was inserted a time 0 hours and removed at 2 hours and cytokines were assayed at 4 hours, then the cytokines were assayed at 4 hours post dosing.

TNF = assay: Serum and vaginal tissue TNF after intravaginal dosing of rats (ELISA); details: for TNF Tissue: vaginal tissue, per 200 mg
Description: as §1, §2, §3, §4, §5

rats = assay: Histologic examination of uterus, cervix, vagina, vulva and perineal skin, Example 11; details: 1% device removed after 2 hours
Description: Cotton devices were prepared as described in Example 1. The devices were saturated with either a solution containing 1% by weight of IRM 2 in 50/50 w/w isostearic acid/isopropyl myristate or with 50/50 w/w isostearic acid/isopropyl myristate (vehicle). Three groups of rats were dosed intravaginally 2 times a week for 3 weeks (Tuesday, Friday, Monday, Thursday, Monday, Thursday) with 1% IRM 2 device, vehicle device or with 1% IRM 2 cream. The devices were removed after 2 hours. The cream was left in place. Cytokines were assayed 4 hours post dosing of the final dose. Three more groups of rats were dosed intravaginally with 1% IRM 2 device, vehicle device or with 1% ERM 2 cream. The devices were removed after 2 hours. The cream was left in place. Cytokines were assayed 4 hours post dosing. […] The results are shown in the table below where each value is the mean value for 3 rats.
Groups of 3 rats were treated as described in Example 8 and necropsied 22 hours after the devices were removed. Uterus, cervix, vagina, vulva and perineal skin were collected, fixed and processed routinely for histologic examination.

[1] = 4 hours post dosing, 1% in 50/50 ISA/IPM, cotton pellet device removed after 2 hours, Example 6
[2] = 4 hours post dosing, device 1.0% in 50/50 ISA/IPM, removed after 15 min, Example 4
[3] = 4 hours post dosing, device 1.0% in 50/50 ISA/IPM, removed after 30 min, Example 4
[4] = 4 hours post dosing, device 1.0% in 50/50 ISA/IPM, removed after 60 min, Example 4
[5] = 4 hours post dosing, device 1.0% in 50/50 ISA/IPM, removed after 120 min, Example 4
[6] = 4 hours post dosing, single dose, 1% in 50/50 ISA/IPM cotton device removed after 2 hours, Example 8
[7] = 4 hours post final dose, multiple dose, 2 times a week for 3 weeks, 1% in 50/50 ISA/IPM cotton device removed after 2 hours, Example 8
[8] = Multiple dose (2 times a week for 3 weeks)
[9] = 2 hr post dose, 5% in 50/50 ISA/IPM, cotton pellet device removed after 2 hours, Example 7
[10] = 4 hr post dose, 5% in 50/50 ISA/IPM, cotton pellet device removed after 2 hours, Example 7
[11] = 6 hr post dose, 5% in 50/50 ISA/IPM, cotton pellet device removed after 2 hours, Example 7

With `Cc1nc2c(N)nc3ccccc3c2n1CC(C)(C)O` [IRM 2, 4-amino-α,α,2-trimethyl-1H-imidazo[4,5-c]quinoline-1-ethanol] the “MCP-1 Serum” value (MCP-1; [1]) was 114 pg/mL, the “MCP-1 Serum” value (MCP-1; [2]) was 68 pg/mL and the “MCP-1 Serum” value (MCP-1; [3]) was 83 pg/mL. The “MCP-1 Serum” value (MCP-1; [4]) was 118 pg/mL, the “MCP-1 Serum” value (MCP-1; [5]) was 92 pg/mL and the “MCP-1 Serum” value (MCP-1; [6]) was 59 pg/mL. The “MCP-1 Serum” value (MCP-1; [7]) was 87 pg/mL, the “MCP-1 Tissue” value (MCP-1; [1]) was 1016 pg/mL and the “MCP-1 Tissue” value (MCP-1; [2]) was 433 pg/mL. For the same compound, the “MCP-1 Tissue” value (MCP-1; [3]) was 454 pg/mL, the “MCP-1 Tissue” value (MCP-1; [4]) was 889 pg/mL and the “MCP-1 Tissue” value (MCP-1; [5]) was 2462 pg/mL. The “MCP-1 Tissue” value (MCP-1; [6]) was 1390 pg/mL, the “MCP-1 Tissue” value (MCP-1; [7]) was 2353 pg/mL and the “TNF Serum” value (TNF; [1]) was 4 pg/mL. For the same compound, the “TNF Serum” value (TNF; [2]) was 0 pg/mL, the “TNF Serum” value (TNF; [3]) was 0 pg/mL and the “TNF Serum” value (TNF; [4]) was 0 pg/mL. The “TNF Serum” value (TNF; [5]) was 0 pg/mL, the “TNF Serum” value (TNF; [6]) was 0 pg/mL and the “TNF Serum” value (TNF; [7]) was 0 pg/mL. The “TNF Tissue” value (TNF; [1]) was 384 pg/mL, the “TNF Tissue” value (TNF; [2]) was 493 pg/mL and the “TNF Tissue” value (TNF; [3]) was 390 pg/mL. For the same compound, the “TNF Tissue” value (TNF; [4]) was 537 pg/mL, the “TNF Tissue” value (TNF; [5]) was 716 pg/mL and the “TNF Tissue” value (TNF; [6]) was 888 pg/mL. The “TNF Tissue” value (TNF; [7]) was 1075 pg/mL, the “Lesion incidence: Cervix, Cavitation (epithelium)” value (rats; [8]) was 0/3 and the “Lesion incidence: Cervix, Inflammation” value (rats; [8]) was 1/3. The “Lesion incidence: Perineal skin, Exudate on surface, epidermis” value (rats; [8]) was 0/3, the “Lesion incidence: Perineal skin, Inflammation, superficial dermis” value (rats; [8]) was 1/3 and the “Lesion incidence: Perineal skin, Spongiosis, epidermis” value (rats; [8]) was 1/3. The “Lesion incidence: Perineal skin, Subcorneal pustules, epidermis” value (rats; [8]) was 1/3, the “Lesion incidence: Vagina, Edema, lamina propria” value (rats; [8]) was 0/3 and the “Lesion incidence: Vagina, Inflammation, lamina propria” value (rats; [8]) was 3/3. The “Lesion incidence: Vulva, Edema, lamina propria” value (rats; [8]) was 1/3, the “Lesion incidence: Vulva, Erosion” value (rats; [8]) was 0/3 and the “Lesion incidence: Vulva, Inflammation, lamina propria” value (rats; [8]) was 3/3. The “Lesion incidence: Vulva, Intraepithelial pustules” value (rats; [8]) was 0/3, the “Lesion incidence: Vulva, Necrosis, epithelium” value (rats; [8]) was 1/3 and the “Lesion incidence: Vulva, Spongiosis, epithelium” value (rats; [8]) was 1/3. For the same compound, the “Lesion incidence: Vulva, Ulceration” value (rats; [8]) was 0/3, the “Lesion incidence: Cervix, Cavitation (epithelium)” value (rats; Single dose) was 0/3 and the “Lesion incidence: Cervix, Inflammation” value (rats; Single dose) was 0/3. The “Lesion incidence: Perineal skin, Exudate on surface, epidermis” value (rats; Single dose) was 0/3, the “Lesion incidence: Perineal skin, Inflammation, superficial dermis” value (rats; Single dose) was 1/3 and the “Lesion incidence: Perineal skin, Spongiosis, epidermis” value (rats; Single dose) was 0/3. For the same compound, the “Lesion incidence: Perineal skin, Subcorneal pustules, epidermis” value (rats; Single dose) was 0/3, the “Lesion incidence: Vagina, Edema, lamina propria” value (rats; Single dose) was 0/3 and the “Lesion incidence: Vagina, Inflammation, lamina propria” value (rats; Single dose) was 3/3. The “Lesion incidence: Vulva, Edema, lamina propria” value (rats; Single dose) was 0/3, the “Lesion incidence: Vulva, Erosion” value (rats; Single dose) was 0/3 and the “Lesion incidence: Vulva, Inflammation, lamina propria” value (rats; Single dose) was 3/3. For the same compound, the “Lesion incidence: Vulva, Intraepithelial pustules” value (rats; Single dose) was 1/3, the “Lesion incidence: Vulva, Necrosis, epithelium” value (rats; Single dose) was 1/3 and the “Lesion incidence: Vulva, Spongiosis, epithelium” value (rats; Single dose) was 0/3. For the same compound, the “Lesion incidence: Vulva, Ulceration” value (rats; Single dose) was 0/3.
`COCCc1nc2c(N)nc3ccccc3c2n1CCCCNS(C)(=O)=O` [IRM 4, N-{4-[4-amino-2-(2-methoxyethyl)-1H-imidazo[4,5-c]quinolin-1-yl]butyl}methanesulfonamide] was tested, and the “MCP-1 Serum” value (MCP-1; [1]) was 105 pg/mL, the “MCP-1 Tissue” value (MCP-1; [1]) was 713 pg/mL and the “TNF Serum” value (TNF; [1]) was 0 pg/mL. For the same compound, the “TNF Tissue” value (TNF; [1]) was 109 pg/mL.
`CCCCNC(=O)NCCCn1c(CCCC)nc2c(N)nc3ccccc3c21` [IRM 5] was tested, and the “MCP-1 Serum” value (MCP-1; [1]) was 108 pg/mL, the “MCP-1 Tissue” value (MCP-1; [1]) was 958 pg/mL and the “TNF Serum” value (TNF; [1]) was 1 pg/mL. The “TNF Tissue” value (TNF; [1]) was 358 pg/mL.
For `CCCCc1nc2c(N)nc3ccccc3c2n1CCS(=O)(=O)C(C)C` [IRM 6, 2-butyl-1-{2-[(1-methylethyl)sulfonyl]ethyl}-1H-imidazo[4,5-c]quinolin-4-amine], the “MCP-1 Serum” value (MCP-1; [1]) was 114 pg/mL, the “MCP-1 Tissue” value (MCP-1; [1]) was 1840 pg/mL and the “TNF Serum” value (TNF; [1]) was 1 pg/mL. For the same compound, the “TNF Tissue” value (TNF; [1]) was 491 pg/mL.
With `CCOCc1nc2c(N)nc3ccccc3c2n1CCNC(=O)NC(C)C` [IRM 7, N-{2-[4-amino-2-(ethoxymethyl)-1H-imidazo[4,5-c]quinolin-1-yl]ethyl}-N′-isopropylurea] the “MCP-1 Serum” value (MCP-1; [9]) was 92 pg/mL, the “MCP-1 Serum” value (MCP-1; [1]) was 93 pg/mL and the “MCP-1 Serum” value (MCP-1; [10]) was 112 pg/mL. For the same compound, the “MCP-1 Serum” value (MCP-1; [11]) was 140 pg/mL, the “MCP-1 Tissue” value (MCP-1; [9]) was 498 pg/mL and the “MCP-1 Tissue” value (MCP-1; [1]) was 642 pg/mL. For the same compound, the “MCP-1 Tissue” value (MCP-1; [10]) was 851 pg/mL, the “MCP-1 Tissue” value (MCP-1; [11]) was 670 pg/mL and the “TNF Serum” value (TNF; [9]) was 1 pg/mL. The “TNF Serum” value (TNF; [1]) was 0 pg/mL, the “TNF Serum” value (TNF; [10]) was 0 pg/mL and the “TNF Serum” value (TNF; [11]) was 2 pg/mL. For the same compound, the “TNF Tissue” value (TNF; [9]) was 512 pg/mL, the “TNF Tissue” value (TNF; [1]) was 219 pg/mL and the “TNF Tissue” value (TNF; [10]) was 460 pg/mL. For the same compound, the “TNF Tissue” value (TNF; [11]) was 267 pg/mL.
With `CCOCc1nc2c(N)nc3ccccc3c2n1CCOCCNC(=O)Nc1ccccc1` [IRM 8, N-(2-{2-[4-amino-2-(ethoxymethyl)-1H-imidazo[4,5-c]quinolin-1-yl]ethoxy}ethyl)-N′-phenylurea] the “MCP-1 Serum” value (MCP-1; [1]) was 82 pg/mL, the “MCP-1 Tissue” value (MCP-1; [1]) was 331 pg/mL and the “TNF Serum” value (TNF; [1]) was 0 pg/mL. The “TNF Tissue” value (TNF; [1]) was 294 pg/mL.
For `Nc1nc2ccccc2c2c1ncn2CCOCc1ccncc1` [IRM 9, 1-[2-(pyridin-4-ylmethoxy)ethyl]-1H-imidazo[4,5-c]quinolin-4-amine], the “MCP-1 Serum” value (MCP-1; [9]) was 85 pg/mL, the “MCP-1 Serum” value (MCP-1; [10]) was 131 pg/mL and the “MCP-1 Serum” value (MCP-1; [11]) was 180 pg/mL. For the same compound, the “MCP-1 Tissue” value (MCP-1; [9]) was 328 pg/mL, the “MCP-1 Tissue” value (MCP-1; [10]) was 1556 pg/mL and the “MCP-1 Tissue” value (MCP-1; [11]) was 850 pg/mL. For the same compound, the “TNF Serum” value (TNF; [9]) was 30 pg/mL, the “TNF Serum” value (TNF; [10]) was 4 pg/mL and the “TNF Serum” value (TNF; [11]) was 8 pg/mL. The “TNF Tissue” value (TNF; [9]) was 597 pg/mL, the “TNF Tissue” value (TNF; [10]) was 697 pg/mL and the “TNF Tissue” value (TNF; [11]) was 248 pg/mL.
`CCCCc1nc2c(N)nc3ccccc3c2n1CCCS(C)(=O)=O` [IRM 10, 2-butyl-1-[3-(methylsulfonyl)propyl]-1H-imidazo[4,5-c]quinoline-4-amine] was tested, and the “MCP-1 Serum” value (MCP-1; [9]) was 111 pg/mL, the “MCP-1 Serum” value (MCP-1; [10]) was 160 pg/mL and the “MCP-1 Serum” value (MCP-1; [11]) was 155 pg/mL. The “MCP-1 Tissue” value (MCP-1; [9]) was 739 pg/mL, the “MCP-1 Tissue” value (MCP-1; [10]) was 1440 pg/mL and the “MCP-1 Tissue” value (MCP-1; [11]) was 975 pg/mL. For the same compound, the “TNF Serum” value (TNF; [9]) was 16 pg/mL, the “TNF Serum” value (TNF; [10]) was 25 pg/mL and the “TNF Serum” value (TNF; [11]) was 10 pg/mL. The “TNF Tissue” value (TNF; [9]) was 1110 pg/mL, the “TNF Tissue” value (TNF; [10]) was 887 pg/mL and the “TNF Tissue” value (TNF; [11]) was 519 pg/mL.
